Legend:
[1] = system: Diglycosidase derived from P. multicolor; assay: Reactivity toward various isoflavone glycosides (HPLC); format: biochemical, Penicillium multicolor; design: glucoside / aglycon: unit not given here; settings: 55 °C, pH 4.0
Method in brief: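 Enzymes at 0.75 AU/mL in pH 4.0 acetate buffer were reacted at 55° C with individual isoflavone glycosides (substrate stock 2 mM in methanol) in 20 mM acetate pH 4.0. Aglycone release followed at 0, 1, 3 and 6 h: ethanol-quenched, ODS HPLC with UV 260 nm, quantified against calibration curves.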

[2] = system: Crude diglycosidase; assay: Examination of substrate concentration in the conversion into isoflavone aglycons by diglycosidase using soybean materials; format: biochemical, Penicillium multicolor IAM7153;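 also: percent of the isoflavone family total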
Method in brief: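 Soybean materials (roasted soy flour, soymilk, defatted soybean, concentrated soy protein) at 2–30% (w/v) in 20 mM acetate pH 4.0 were reacted with crude diglycosidase at 55° C with shaking; enzyme solution added was 1.88 AU/mL. Samples taken at 0, 1, 3 and 6 h were ethanol-extracted and analyzed by HPLC.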

COc1cc2c(=O)c(-c3ccc(O)cc3)coc2cc1O[C@@H]1O[C@H](CO)[C@@H](O)[C@H](O)[C@H]1O [glycitin]
aglycon ([1]; Reaction time 0 h): 0 | glucoside ([1]; Reaction time 0 h): 100 | aglycon ([1]; Reaction time 1 h): 97.9 | glucoside ([1]; Reaction time 1 h): 2.1 | aglycon ([1]; Reaction time 3 h): 99.8 | glucoside ([1]; Reaction time 3 h): 0.2 | aglycon ([1]; Reaction time 6 h): 99.7 | glucoside ([1]; Reaction time 6 h): 0.3 | Decomposition efficiency: ratio of each glycoside/aglycon within its isoflavone family ([2]; concentrated soybean protein, substrate concentration 2%, heat treatment of enzyme no, reaction time 0 h): 52.2% | Decomposition efficiency: ratio of each glycoside/aglycon within its isoflavone family ([2]; concentrated soybean protein, substrate concentration 2%, heat treatment of enzyme no, reaction time 1 h): not detected | Decomposition efficiency: ratio of each glycoside/aglycon within its isoflavone family ([2]; concentrated soybean protein, substrate concentration 2%, heat treatment of enzyme no, reaction time 3 h): not detected | Decomposition efficiency: ratio of each glycoside/aglycon within its isoflavone family ([2]; concentrated soybean protein, substrate concentration 2%, heat treatment of enzyme no, reaction time 6 h): not detected | Decomposition efficiency: ratio of each glycoside/aglycon within its isoflavone family ([2]; concentrated soybean protein, substrate concentration 2%, heat treatment of enzyme yes, reaction time 6 h): 53.4% | Decomposition efficiency: ratio of each glycoside/aglycon within its isoflavone family ([2]; concentrated soybean protein, substrate concentration 5%, heat treatment of enzyme no, reaction time 0 h): 52.9% | Decomposition efficiency: ratio of each glycoside/aglycon within its isoflavone family ([2]; concentrated soybean protein, substrate concentration 5%, heat treatment of enzyme no, reaction time 1 h): not detected | Decomposition efficiency: ratio of each glycoside/aglycon within its isoflavone family ([2]; concentrated soybean protein, substrate concentration 5%, heat treatment of enzyme no, reaction time 3 h): not detected | Decomposition efficiency: ratio of each glycoside/aglycon within its isoflavone family ([2]; concentrated soybean protein, substrate concentration 5%, heat treatment of enzyme no, reaction time 6 h): not detected | Decomposition efficiency: ratio of each glycoside/aglycon within its isoflavone family ([2]; concentrated soybean protein, substrate concentration 5%, heat treatment of enzyme yes, reaction time 6 h): 54.0% | Decomposition efficiency: ratio of each glycoside/aglycon within its isoflavone family ([2]; concentrated soybean protein, substrate concentration 10%, heat treatment of enzyme no, reaction time 0 h): 52.9% | Decomposition efficiency: ratio of each glycoside/aglycon within its isoflavone family ([2]; concentrated soybean protein, substrate concentration 10%, heat treatment of enzyme no, reaction time 1 h): 1.6% | Decomposition efficiency: ratio of each glycoside/aglycon within its isoflavone family ([2]; concentrated soybean protein, substrate concentration 10%, heat treatment of enzyme no, reaction time 3 h): not detected | Decomposition efficiency: ratio of each glycoside/aglycon within its isoflavone family ([2]; concentrated soybean protein, substrate concentration 10%, heat treatment of enzyme no, reaction time 6 h): not detected | Decomposition efficiency: ratio of each glycoside/aglycon within its isoflavone family ([2]; concentrated soybean protein, substrate concentration 10%, heat treatment of enzyme yes, reaction time 6 h): 53.4% | Decomposition efficiency: ratio of each glycoside/aglycon within its isoflavone family ([2]; concentrated soybean protein, substrate concentration 20%, heat treatment of enzyme no, reaction time 0 h): 53.1% | Decomposition efficiency: ratio of each glycoside/aglycon within its isoflavone family ([2]; concentrated soybean protein, substrate concentration 20%, heat treatment of enzyme no, reaction time 1 h): 13.2% | Decomposition efficiency: ratio of each glycoside/aglycon within its isoflavone family ([2]; concentrated soybean protein, substrate concentration 20%, heat treatment of enzyme no, reaction time 3 h): not detected | Decomposition efficiency: ratio of each glycoside/aglycon within its isoflavone family ([2]; concentrated soybean protein, substrate concentration 20%, heat treatment of enzyme no, reaction time 6 h): not detected | Decomposition efficiency: ratio of each glycoside/aglycon within its isoflavone family ([2]; concentrated soybean protein, substrate concentration 20%, heat treatment of enzyme yes, reaction time 6 h): 52.8% | Decomposition efficiency: ratio of each glycoside/aglycon within its isoflavone family ([2]; concentrated soybean protein, substrate concentration 30%, heat treatment of enzyme no, reaction time 0 h): 57.5% | Decomposition efficiency: ratio of each glycoside/aglycon within its isoflavone family ([2]; concentrated soybean protein, substrate concentration 30%, heat treatment of enzyme no, reaction time 1 h): 2.0% | Decomposition efficiency: ratio of each glycoside/aglycon within its isoflavone family ([2]; concentrated soybean protein, substrate concentration 30%, heat treatment of enzyme no, reaction time 3 h): not detected | Decomposition efficiency: ratio of each glycoside/aglycon within its isoflavone family ([2]; concentrated soybean protein, substrate concentration 30%, heat treatment of enzyme no, reaction time 6 h): not detected | Decomposition efficiency: ratio of each glycoside/aglycon within its isoflavone family ([2]; concentrated soybean protein, substrate concentration 30%, heat treatment of enzyme yes, reaction time 6 h): 58.0% | Decomposition efficiency: ratio of each glycoside/aglycon within its isoflavone family ([2]; defatted soybean, substrate concentration 2%, heat treatment of enzyme no, reaction time 0 h): not detected | Decomposition efficiency: ratio of each glycoside/aglycon within its isoflavone family ([2]; defatted soybean, substrate concentration 2%, heat treatment of enzyme no, reaction time 1 h): not detected | Decomposition efficiency: ratio of each glycoside/aglycon within its isoflavone family ([2]; defatted soybean, substrate concentration 2%, heat treatment of enzyme no, reaction time 3 h): not detected | Decomposition efficiency: ratio of each glycoside/aglycon within its isoflavone family ([2]; defatted soybean, substrate concentration 2%, heat treatment of enzyme no, reaction time 6 h): not detected | Decomposition efficiency: ratio of each glycoside/aglycon within its isoflavone family ([2]; defatted soybean, substrate concentration 2%, heat treatment of enzyme yes, reaction time 6 h): not detected | Decomposition efficiency: ratio of each glycoside/aglycon within its isoflavone family ([2]; defatted soybean, substrate concentration 5%, heat treatment of enzyme no, reaction time 0 h): not detected | Decomposition efficiency: ratio of each glycoside/aglycon within its isoflavone family ([2]; defatted soybean, substrate concentration 5%, heat treatment of enzyme no, reaction time 1 h): not detected | Decomposition efficiency: ratio of each glycoside/aglycon within its isoflavone family ([2]; defatted soybean, substrate concentration 5%, heat treatment of enzyme no, reaction time 3 h): not detected | Decomposition efficiency: ratio of each glycoside/aglycon within its isoflavone family ([2]; defatted soybean, substrate concentration 5%, heat treatment of enzyme no, reaction time 6 h): not detected | Decomposition efficiency: ratio of each glycoside/aglycon within its isoflavone family ([2]; defatted soybean, substrate concentration 5%, heat treatment of enzyme yes, reaction time 6 h): not detected | Decomposition efficiency: ratio of each glycoside/aglycon within its isoflavone family ([2]; defatted soybean, substrate concentration 10%, heat treatment of enzyme no, reaction time 0 h): not detected | Decomposition efficiency: ratio of each glycoside/aglycon within its isoflavone family ([2]; defatted soybean, substrate concentration 10%, heat treatment of enzyme no, reaction time 1 h): not detected | Decomposition efficiency: ratio of each glycoside/aglycon within its isoflavone family ([2]; defatted soybean, substrate concentration 10%, heat treatment of enzyme no, reaction time 3 h): not detected | Decomposition efficiency: ratio of each glycoside/aglycon within its isoflavone family ([2]; defatted soybean, substrate concentration 10%, heat treatment of enzyme no, reaction time 6 h): not detected | Decomposition efficiency: ratio of each glycoside/aglycon within its isoflavone family ([2]; defatted soybean, substrate concentration 10%, heat treatment of enzyme yes, reaction time 6 h): not detected | Decomposition efficiency: ratio of each glycoside/aglycon within its isoflavone family ([2]; roasted soy flour, substrate concentration 2%, heat treatment of enzyme no, reaction time 0 h): 50.2%

From patent US7118895B2, “Process for producing aglycon by using diglycosidase and flavor-improved food containing the aglycon and converting agent to be used in the process” (Amano Enzyme Inc., priority 2000, dated 2006)
